Experimental findings from PubChem BioAssay (NCI) are described below.

Structures are written as SMILES.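 Test compounds were applied to cells in 96-well plates for 48 hours at 5 doses. The concentration for full growth arrest is given as TGI.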 A value given as a limit tells only on which side of the number the result lay.

Holding throughout (test): NCI anticancer screen, dose series, 48 h
The test system of assay [1] is HS 578T breast.
The subject of assay [2] is MALME-3M melanoma.
Assay [3] concerns NCI-H23 lung.
The subject of assay [4] is SN12C renal.
The test system of assay [5] is HCC-2998 colon.
For assay [6], the system named is HCT-116 colon.
For assay [7], the system named is T-47D breast.
The test system of assay [8] is SNB-75 CNS.
Assay [9] has as its system A549 NSCLC.
In assay [10] the test system is NCI-H226 lung.
The subject of assay [11] is TK-10 renal.
Assay [12] relates to COLO 205 colon.
In assay [13] the test system is KM12 colon.

For `CCCCC1Cc2cc(O)ccc2-c2n1c1cc(O)ccc1[n+]2C` (configuration not stated) (tested in a mixture with another compound), the TGI was more than 51.4 µM in [1]; 73.4 µM in assay [2]; more than 76.2 µM in assay [3]; more than 100 µM in [4]; more than 100 µM in assay [5]; more than 100 µM in assay [6]. Besides, the TGI is more than 100 µM in [7]; more than 100 µM in assay [8]; more than 100 µM in [9]; more than 100 µM in assay [10]; more than 100 µM in [11]; 44.2 µM in [12]. In assay [13], this compound registered a TGI of more than 100 µM.
Consider `c1ccc(Cc2cccc3cc(-c4ccc(-c5ccccc5)cc4)[nH]c23)cc1`, for which the TGI in assay [1] is 84 µM; in [2] it was 54 µM; in [3] it was more than 100 µM; in [4] it was more than 100 µM; in [5], more than 100 µM; in assay [6] it was more than 100 µM. The TGI in assay [7], in assay [8], in assay [9], in assay [10], in assay [11] and in [12] was more than 100 µM throughout. The TGI in assay [13] is more than 100 µM.
Consider `C=C1c2nc3ccccc3n2C=C(c2ccc(Cl)cc2)N1c1ccc(OCCN2CCOCC2)cc1`, for which the TGI in [1], in assay [2], in assay [3], in assay [4], in assay [5] and in assay [6] was more than 100 µM each time. Besides, the TGI in assay [7] is more than 100 µM; in [8], more than 100 µM; in assay [9], more than 100 µM; in assay [10], more than 100 µM; in assay [11] it was more than 100 µM; in assay [12] it was 98.6 µM. In [13], this compound displayed a TGI of more than 100 µM.
In the case of `Cc1nn2c(N)cc(=O)nc2nc1/C=C/c1ccc(N(C)C)cc1`, the TGI is more than 100 µM in [1]; 49.8 µM in [2]; more than 100 µM in [3]; more than 100 µM in assay [4]; 23.3 µM in assay [5]; more than 100 µM in assay [6]. In addition, the TGI in assay [7], in [9], in assay [10], in assay [11], in assay [12] and in [13] was more than 100 µM throughout.
Take `C=CCCCCOC1C=CC(OC(C)=O)C(COC(C)=O)O1` (configuration not stated): the TGI in assay [1], in assay [2], in [3], in [4], in [5] and in [6] was more than 100 µM each time. The TGI in assay [7], in assay [9], in [10], in assay [11], in assay [12] and in assay [13] was more than 100 µM in each case.
As for `NC(=O)c1cnc2sc3ccccc3n2c1=O`, the TGI in assay [1], in assay [2], in [4], in assay [5], in assay [6] and in assay [7] was more than 100 µM throughout. In addition, the TGI in assay [8], in assay [9], in [10], in assay [11], in assay [12] and in assay [13] was more than 100 µM throughout.
Turning to `Cc1csc2c(P(=O)(OC(C)C)OC(C)C)c(-c3ccccc3)cn12`, the TGI in [1] came out at 39.7 µM; in [2], 36.1 µM; in assay [3], 37.9 µM; in assay [4], 32.1 µM; in [5], 28.5 µM; in assay [6], 27.4 µM. Also, the TGI in assay [7] worked out at 16.2 µM; in [8] it was 27.7 µM; in [9], 32.4 µM; in [11], 23.7 µM; in assay [12], 37.8 µM; in assay [13] it was 30.6 µM.
In the case of `O=C(CSc1nc2ccc(I)cc2c(=O)n1Cc1ccccc1)N/N=C/c1ccccc1`, the TGI is 9.09 µM in assay [1]; 71.3 µM in assay [3]; more than 100 µM in assay [4]; more than 100 µM in [5]; more than 100 µM in assay [6]; 79.9 µM in assay [7]. Further, the TGI was 28.6 µM in assay [8]; more than 100 µM in assay [9]; 95.9 µM in assay [10]; 36.1 µM in [11]; more than 100 µM in assay [12]; more than 100 µM in [13].
Take `COc1cc(/C=C2\C(=O)N(c3cccc(Cl)c3)C(c3ccccc3)S2(=O)=O)cc(OC)c1OC` (configuration not stated): the TGI in [1], in assay [2], in assay [3], in [4], in assay [5] and in assay [6] was more than 100 µM throughout. For the same compound, the TGI in [7], in assay [9], in assay [10], in assay [11], in assay [12] and in assay [13] was more than 100 µM in each case.
Take `CCOC(=O)C(Cc1ccc2c(c1)CCC2)(Cc1ccc2c(c1)CCC2)C(=O)OCC`: the TGI in assay [1] is more than 100 µM; in [2], 89.2 µM; in assay [3] it was more than 100 µM; in assay [5], more than 100 µM; in assay [6], more than 100 µM; in [7], more than 100 µM. Also, the TGI in assay [8], in [9] and in assay [11] was more than 100 µM throughout.
With `C=C1CC(OC(C)=O)/C=C(/C)CCC(C(C)(C)O)CC1O` (configuration not stated), the TGI in assay [1], in assay [2], in assay [3], in [4], in [5] and in assay [6] was more than 100 µM in each case. Further, the TGI in assay [7], in assay [9], in [10], in [11], in assay [12] and in assay [13] was more than 100 µM in each case.
